Where “and” joins values, the source holds several entries; their conditions need not be identical. Equal values may be shown once. Entries after “also recorded” stand apart in the source; their conditions may differ.
System: normotensive Wister rats
Test: Bradykinin-potentiating effect on blood pressure in anaesthetized normotensive rats
Assay type: in vivo, rat
Procedure: In the in vivo experiments with normotensive rats the animals were previously anaesthetized and after blood pressure stabilization treated with a constant amount of bradykinin. Subsequently, either Captopril or human BPP were administered, again followed by a constant amount of bradykinin. Afterwards the maximum blood pressure drop was determined and, on the basis of bradykinin as a factor 1, the potentiating factor was determined. In the same way, the systolic and diastolic blood pressure, the percentage middle pressure decrease and the time required to come back to the baseline values were measured (see tables 4a to 4j). A detailed experimental description is given below.
2. Measurement of Blood Pressure in Normotensive and Hypertensive Rats
The trials were conducted on female anaesthetized normotensive Wister rats with weight ranging from 210 to 240 g.
The peptide pANP48-57 used for the in vivo assays was synthesized by Biosynthan (Berlin) with a HPLC-determined purity of 98%.
Anaesthetizing was performed by i.p.-administration of 1 ml/kg Ketavit (100 mg/ml)+Rampun (2%).
In order to conduct the blood pressure measurement, a polyethylene catheter was introduced into the Aorta femuralis and connected with a pressure transducer. A Statham-P23A pressure-transducer was linked to a Gould Polygraph and used to determine the arterial blood pressure. A Hg-manometer was used to calibrate the system.
All substances were dissolved and diluted in a physiological sodium chloride solution and introduced into the Vena jugularis via a catheter.
After stabilization of blood pressure (after about 10 minutes) […] body weight of a 2,5 μM bradykinin-solution (Sigma) was administered.
The middle pressure was determined from the measured diastolic (pd) and systolic (ps) blood pressure by using the following formula: pm=(ps−Pd)×0,42+pd.

[1] = S605 1 × 10^−3 M + Bradykinin 2.5 × 10^−6 M
[2] = S605 1 × 10^−3 M + Bradykinin 2.5 × 10^−6 M, individual female rat
[3] = S605 1.5 × 10^−3 M + Bradykinin 2.5 × 10^−6 M
[4] = S605 1.5 × 10^−3 M + Bradykinin 2.5 × 10^−6 M, Rat (female) 216 g, Table 4j
[5] = S605 1.5 × 10^−3 M + Bradykinin 2.5 × 10^−6 M, individual female rat
[6] = S605 1.5 × 10^−4 M + Bradykinin 2.5 × 10^−6 M
[7] = S605 1.5 × 10^−4 M + Bradykinin 2.5 × 10^−6 M, individual female rat
[8] = S605 5 × 10^−3 M + Bradykinin 2.5 × 10^−6 M
[9] = S605 5 × 10^−3 M + Bradykinin 2.5 × 10^−6 M, Rat (female) 211 g, Table 4i
[10] = S605 5 × 10^−3 M + Bradykinin 2.5 × 10^−6 M, individual female rat

Q: With `CC(C)C[C@H](NC(=O)[C@H](C)N)C(=O)N[C@@H](CO)C(=O)N1CCC[C@H]1C(=O)N[C@@H](CC(C)C)C(=O)N1CCC[C@H]1C(=O)N[C@@H](CCC(=O)O)C(=O)N[C@H](C(=O)N1CCC[C@H]1C(=O)N1CCC[C@H]1C(=O)O)C(C)C` [Peptide S545] as the compound, how does the “maximal drop of blood pressure” value [1] read?
A: 48.5%

Q: What about the “potentiating factor (Bradykinin = 1)” value [1] of the same compound?
A: 1.49

Q: And the “Blood pressure minimal, PM (middle pressure) = (Ps − Pd) × 0.42 + Pd” value (“Blood pressure minimal, PM” below) [2]?
A: 39 mg Hg

Q: And the “Blood pressure minimal, diastolic” value [2]?
A: 28 mg Hg

Q: And the “Blood pressure minimal, systolic” value [2]?
A: 55 mg Hg

Q: What about the “time to reach the baseline value” [2] of the same compound?
A: time to reach the baseline value (t = 31 s)

Q: And the “ΔP (middle pressure drop)” value [2]?
A: 37 mg Hg

Q: What about the “ΔP (middle pressure drop), percentage” value [2] of the same compound?
A: 48.5%

Q: And the “maximal drop of blood pressure” value [3]?
A: 50.5% ± 5.2

Q: What about the “potentiating factor (Bradykinin = 1)” value [3] of the same compound?
A: 1.61

Q: What about the “Blood pressure minimal, PM” value [4] of the same compound?
A: 39 mg Hg

Q: And the “Blood pressure minimal, diastolic” value [4]?
A: 28 mg Hg

Q: And the “Blood pressure minimal, systolic” value [4]?
A: 55 mg Hg

Q: And the “following short overreaction at maximum (systolic/diastolic)” value [4]?
A: following short overreaction at maximum of 106/80

Q: What about the “time to reach the baseline value” [4] of the same compound?
A: time to reach the baseline value (t = 20 s)

Q: And the “ΔP (middle pressure drop)” value [4]?
A: 43 mg Hg

Q: And the “ΔP (middle pressure drop), percentage” value [4]?
A: 52.4%

Q: And the “Blood pressure minimal, PM” value [5]?
A: 40 mg Hg and 34 mg Hg

Q: And the “Blood pressure minimal, diastolic” value [5]?
A: 34 mg Hg and 26 mg Hg

Q: What about the “Blood pressure minimal, systolic” value [5] of the same compound?
A: 49 mg Hg and 45 mg Hg

Q: What about the “time to reach the baseline value” [5] of the same compound?
A: time to reach the baseline value (t = 46 s); also recorded: time to reach the baseline value (t = 57 s)

Q: And the “ΔP (middle pressure drop)” value [5]?
A: 32 mg Hg and 41 mg Hg

Q: And the “ΔP (middle pressure drop), percentage” value [5]?
A: 44.6% and 54.4%

Q: And the “maximal drop of blood pressure” value [6]?
A: 38.9% ± 8.3

Q: What about the “potentiating factor (Bradykinin = 1)” value [6] of the same compound?
A: 1.24

Q: What about the “Blood pressure minimal, PM” value [7] of the same compound?
A: 48 mg Hg and 34 mg Hg and 33 mg Hg

Q: What about the “Blood pressure minimal, diastolic” value [7] of the same compound?
A: 40 mg Hg and 26 mg Hg and 28 mg Hg

Q: And the “Blood pressure minimal, systolic” value [7]?
A: 60 mg Hg and 46 mg Hg and 40 mg Hg

Q: What about the “time to reach the baseline value” [7] of the same compound?
A: time to reach the baseline value (t = 26 s); also recorded: time to reach the baseline value (t = 36 s); also recorded: time to reach the baseline value (t = 23 s)

Q: What about the “ΔP (middle pressure drop)” value [7] of the same compound?
A: 22 mg Hg and 32 mg Hg and 20 mg Hg

Q: And the “ΔP (middle pressure drop), percentage” value [7]?
A: 31.4% and 47.9% and 37.4%

Q: What about the “maximal drop of blood pressure” value [8] of the same compound?
A: 63.8% ± 3.6

Q: What about the “potentiating factor (Bradykinin = 1)” value [8] of the same compound?
A: 2.04

Q: What about the “Blood pressure minimal, PM” value [9] of the same compound?
A: 44 mg Hg

Q: And the “Blood pressure minimal, diastolic” value [9]?
A: 35 mg Hg

Q: And the “Blood pressure minimal, systolic” value [9]?
A: 56 mg Hg

Q: And the “following short overreaction at maximum (systolic/diastolic)” value [9]?
A: following short overreaction at maximum of 141/108

Q: What about the “time to reach the baseline value” [9] of the same compound?
A: time to reach the baseline value (t = 44 s)

Q: And the “ΔP (middle pressure drop)” value [9]?
A: 70 mg Hg

Q: What about the “ΔP (middle pressure drop), percentage” value [9] of the same compound?
A: 61.4%

Q: And the “following short overreaction at maximum of (systolic/diastolic blood pressure)” value (S605 5 × 10^−3 M + Bradykinin 2.5 × 10^−6 M, after return to baseline)?
A: following short overreaction at maximum of 112/84; also recorded: following short overreaction at maximum of 154/112

Q: And the “Blood pressure minimal, PM” value [10]?
A: 24 mg Hg and 40 mg Hg

Q: What about the “Blood pressure minimal, diastolic” value [10] of the same compound?
A: 16 mg Hg and 32 mg Hg

Q: And the “Blood pressure minimal, systolic” value [10]?
A: 36 mg Hg and 52 mg Hg

Q: What about the “time to reach the baseline value” [10] of the same compound?
A: time to reach the baseline value (t = 36 s); also recorded: time to reach the baseline value (t = 87 s)

Q: What about the “ΔP (middle pressure drop)” value [10] of the same compound?
A: 52 mg Hg and 66 mg Hg

Q: And the “ΔP (middle pressure drop), percentage” value [10]?
A: 68% and 62.1%

Q: What about the “bradykinin-potentiating effect (short-time decrease of blood pressure induced by bradykinin)” value (normotensive rats, result in words) of the same compound?
A: concentration dependent bradykinin-potentiating

Q: And the “fold higher molecular concentration in comparison to Captopril required for the bradykinin-potentiating effect in vivo” value (relative to Captopril)?
A: 10 fold

— patent US20030203373A1 (priority 2002, published 2003)
